# Where two headings read alike, the source gives them in different places.
# What was measured:
# [1] = biological target: T1, STING AQ: His-TVMV-S-hSTING(155-341)-G230A-R293Q (Homo sapiens, UniProt Q86WV6, G230A/H232R/R293Q); assay: STING HTRF Binding Assay, STING AQ; settings: 20 nM His-tagged STING cytoplasmic domain, 40 nM fluorescein-labeled cGAMP analog probe, one hour; read-out: HTRF Binding Assays IC50 (μM) STING AQ
# T1 construct: STING AQ: His-TVMV-S-hSTING(155-341)-G230A-R293Q
# Method: (§1) A time resolved FRET-based competition binding assay was used to assess test article binding to STING WT and STING AQ. His-tagged STING cytoplasmic domain (WT or AQ) at a concentration of 20 nM was incubated with 2.5 nM Tb-labeled anti-His antibody, test compound, and fluorescein-labeled cGAMP analog probe (BioLog cat. no. C195) at a concentration of 200 nM (STING WT) or 40 nM (STING AQ) in PBS containing 0.005% Tween-20 and 0.1% BSA for one hour. Fluorescence at 495 nm and 520 nm was measured using an EnVision microplate reader to quantify FRET between Tb-labeled anti-His antibody and fluorescein-labeled probe. Background was defined as the signal obtained in the absence of STING protein, and background subtracted FRET ratios were normalized to the maximum signal obtained in the absence of test compound. These values were converted to a percent inhibition. Percent inhibition was determined for test compounds at 11 concentrations. The IC50, defined as the concentration of competing test compound needed to reduce specific binding of the probe by 50%, was calculated using the 4 parameter logistic equation to fit the data
# [2] = biological target: T2, STING WT: His-TVMV-S-hSTING(155-341)-H232R (Homo sapiens, UniProt Q86WV6, H232R); assay: STING HTRF Binding Assay, STING WT; settings: 20 nM His-tagged STING cytoplasmic domain, 200 nM fluorescein-labeled cGAMP analog probe, one hour; read-out: HTRF Binding Assays IC50 (μM) STING WT
# T2 construct: STING WT: His-TVMV-S-hSTING(155-341)-H232R
# T2 sequence (Q86WV6 with tags, fused parts or gaps H232R): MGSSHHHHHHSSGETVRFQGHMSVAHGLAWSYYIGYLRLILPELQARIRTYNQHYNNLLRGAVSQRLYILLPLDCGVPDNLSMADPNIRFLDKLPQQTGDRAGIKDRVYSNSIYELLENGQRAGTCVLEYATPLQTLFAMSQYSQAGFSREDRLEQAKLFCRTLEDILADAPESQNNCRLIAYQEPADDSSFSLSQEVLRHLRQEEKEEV
# Method: as §1
# [3] = tested on: IRF pathway in THP1-Dual STING reporter cells; assay: STING THP1 Reporter Assay, IRF pathway (secreted Lucia luciferase); format: cell-based, human; settings: 100% = 100 μM cGAMP
# Description: (§2) THP1-Dual™ cells were derived from the human THP-1 monocyte cell line by stable integration of two inducible reporter constructs. To this end, THP1-Dual™ cells allow the simultaneous study of the NF-κB pathway, by monitoring the activity of SEAP, and the IRF pathway by assessing the activity of a secreted luciferase (Lucia). Both reporter proteins are readily measurable in the cell culture supernatant when using QUANTI-Blue™, a SEAP detection reagent, and QUANTI-Luc™, a luciferase detection reagent.
# (§3) THP1-Dual™ cells induce the activation of NF-κB in response to STING agonists. They also trigger the IRF pathway upon stimulation with STING agonists, such as cGAMP. Here, the THP-1-Dual cells were used to assess STING binders for function on the cellular level.
# (§4) Serial dilutions of compounds in DMSO were added to low volume 384 well plates at 100 nl/well using an ECHO acoustic dispenser (Labcyte, model 550) to achieve final starting concentration of 100 μM in cell suspension. […] One column of the plate was reserved for treatment with cGAMP at 100 μM for 100% activation calculation and one column for no treatment (DMSO only) for baseline activation. Plates were then incubated in 37° C. incubator at 5% CO2 for 20 hours.
# (§5) In the SEAP assay, 5 μl of 2× QuantiBlue (Invivogen, cat #Rep-qb2) is added to 384 well black plates seeded with THP1 cells and incubated at 37° C. for 2 hours. Plates were read on the Envision (Perkin Elmer) at 620 nm wavelength (OD620). In the luciferase assay, 5 μl of Quantiluc (Invivogen, Rep-qlc2) is added to white 384 well plates seeded with THP1 cells and read at 5 minutes on the Envision (Perkin Elmer) using a luminescence protocol (RLU). For both cell lines, 100% activation was determined by value (RLU) of THP-1 Dual STING cells stimulated with 100 μM cGAMP (Invivogen, cat #TLRL-NACGA23-5).
# [4] = tested on: NF-κB pathway in THP1-Dual STING reporter cells; assay: STING THP1 Reporter Assay, NF-κB pathway (SEAP); format: cell-based, human; settings: 100% = 100 μM cGAMP
# Description: as §2, §3, §4, §5
# [5] = Homo sapiens, THP1-Dual, 20 h, THP1-Dual cells, 10% human plasma, 20 hours, luciferase, read-out: THP1 Reporter Assays EC50 (μM) IRF3
# [6] = Homo sapiens, THP1-Dual, 20 h, read-out: THP1 Reporter Assays EC50 (μM) NFkB, THP1-Dual cells, 10% human plasma, 20 hours, SEAP
# [7] = Homo sapiens, THP1-Dual, 20 h, THP1-Dual cells, 10% human plasma, 20 hours, SEAP, read-out: THP1 Reporter Assays EC50 (μM) NFkB
# [8] = read-out: THP1 Reporter Assays EC50 (μM) IRF3, THP1-Dual cells, 10% human plasma, 20 hours, luciferase
# [9] = THP1-Dual cells, 10% human plasma, 20 hours, SEAP, read-out: THP1 Reporter Assays EC50 (μM) NFkB
# [10] = Homo sapiens, THP1-Dual, 20 h, read-out: THP1 Reporter Assays EC50 (μM) IRF3, THP1-Dual cells, 10% human plasma, 20 hours, luciferase
# [11] = THP1-Dual cells, 10% human plasma, 20 hours, luciferase, read-out: THP1 Reporter Assays EC50 (μM) IRF3
# T1 sequence (Q86WV6 with tags, fused parts or gaps G230A/H232R/R293Q): as the sequence (Q86WV6 with tags, fused parts or gaps H232R) above, with G99A, R162Q counted along it
SMILES,IC50 [1],IC50 [2],"EC50 [3, 5]","EC50 [4, 6]","EC50 [4, 7]","EC50 [3, 8]","EC50 [4, 9]","EC50 [3, 10]","EC50 [3, 11]","EC50 ([4]; read-out: THP1 Reporter Assays EC50 (μM) NFkB, THP1-Dual cells, 10% human plasma, 20 hours, SEAP)"
NC(=O)c1cccc2c1nnn2[C@@H]1O[C@@H]2COP(=O)(O)O[C@H]3[C@@H](F)[C@H](n4cnc5c4ncn4ccnc54)O[C@@H]3COP(=O)(O)O[C@H]2[C@H]1F [Example 9],0.42 µM,84.1 µM,> 100 µM,> 100 µM,–,–,–,–,–,–
O=c1[nH]cnc2c1ncn2[C@@H]1O[C@@H]2COP(=O)(O)O[C@H]3[C@@H](O)[C@H](n4cnc5c4ncn4ccnc54)O[C@@H]3COP(=O)(O)O[C@H]2[C@H]1O [Example 18],0.49 µM,25.3 µM,> 100 µM,–,> 100 µM,–,–,–,–,–
"Nc1ncnc2c1ncn2[C@@H]1O[C@@H]2COP(=O)(S)O[C@H]3[C@@H](F)[C@H](n4cnc5c4ncn4ncnc54)O[C@@H]3COP(=O)(S)O[C@H]2[C@H]1F (single isomer, unassigned) [Example 12-2]",0.002 µM,0.01 µM,–,–,–,0.2 µM,2.64 µM,–,–,–
"NC(=O)c1cccc2c1nnn2[C@@H]1O[C@@H]2COP(=O)(S)O[C@H]3[C@@H](F)[C@H](n4cnc5c(N)ncnc54)O[C@@H]3COP(=O)(S)O[C@H]2[C@H]1F (single isomer, unassigned) [Example 4-2]",0.24 µM,8.1 µM,> 100 µM,–,> 100 µM,–,–,–,–,–
"Nc1ncnc2c1ncn2[C@@H]1O[C@@H]2COP(O)(=S)O[C@H]3[C@@H](F)[C@H](n4cnc5c4ncn4ncnc54)O[C@@H]3COP(O)(=S)O[C@H]2[C@H]1F (single isomer, unassigned) [Example 12-1]",0.04 µM,0.56 µM,–,–,65.9 µM,–,–,8.2 µM,–,–
Nc1ncnc2c1ncn2[C@@H]1O[C@@H]2COP(=O)(O)O[C@H]3[C@@H](F)[C@H](n4cnc5c4ncn4ccnc54)O[C@@H]3COP(=O)(O)O[C@H]2[C@H]1O [Example 20],0.01 µM,0.04 µM,3.71 µM,13.6 µM,–,–,–,–,–,–
"NC(=O)c1cccc2c1nnn2[C@@H]1O[C@@H]2COP(=O)(O)O[C@H]3[C@@H](F)[C@H](n4cnc5c(N)ncnc54)O[C@@H]3COP(=O)(S)O[C@H]2[C@H]1F (single isomer, unassigned) [Example 8-2]",0.07 µM,2.23 µM,–,–,–,–,> 100 µM,–,> 100 µM,–
"NC(=O)c1cccc2c1nnn2[C@@H]1O[C@@H]2COP(=O)(S)O[C@H]3[C@@H](F)[C@H](n4cnc5c(N)ncnc54)O[C@@H]3COP(=O)(S)O[C@H]2[C@H]1F (single isomer, unassigned) [Example 4-3]",0.39 µM,12 µM,–,–,–,–,> 100 µM,–,> 100 µM,–
"Nc1ncnc2c1ncn2[C@@H]1O[C@@H]2COP(=O)(O)O[C@H]3[C@@H](O)[C@H](n4cnc5c4ncn4ncnc54)O[C@@H]3COP(=O)(O)O[C@H]2[C@H]1F [Example 11, (1S,6R,8R,9R,10R,15R,17R,18R)-8-(6-amino-9H-purin-9-yl)-9-fluoro-3,12,18-trihydroxy-17-{3H-[1,2,4]triazolo[3,2-f]purin-3-yl}-2,4,7,11,13,16-hexaoxa-3λ^5,12λ^5-diphosphatricyclo[13.3.0.0^6,10]octadecane-3,12-dione]",–,0.23 µM,–,16 µM,–,–,–,8.35 µM,–,–
"NC(=O)c1cc([C@@H]2O[C@@H]3COP(=O)(S)O[C@H]4[C@@H](F)[C@H](n5cnc6c(N)ncnc65)O[C@@H]4COP(=O)(S)O[C@H]3[C@H]2O)[nH]n1 (single isomer, unassigned) [Example 6-1]",1.32 µM,5.58 µM,> 100 µM,–,> 100 µM,–,–,–,–,–
"NC(=O)c1cc([C@@H]2O[C@@H]3COP(=O)(S)O[C@H]4[C@@H](F)[C@H](n5cnc6c(N)ncnc65)O[C@@H]4COP(=O)(S)O[C@H]3[C@H]2O)[nH]n1 (single isomer, unassigned) [Example 6-4]",0.19 µM,3.03 µM,–,–,–,–,> 100 µM,–,> 100 µM,–
"NC(=O)c1cccc2c1nnn2[C@@H]1O[C@@H]2COP(=O)(S)O[C@H]3[C@@H](F)[C@H](n4cnc5c(N)ncnc54)O[C@@H]3COP(=O)(S)O[C@H]2[C@H]1F (single isomer, unassigned) [Example 4-1]",17.8 µM,> 100 µM,–,–,–,–,> 100 µM,–,> 100 µM,–
"Nc1ncnc2c1ncn2[C@@H]1O[C@@H]2COP(=O)(S)O[C@H]3[C@@H](F)[C@H](n4cnc5c4ncn4ncnc54)O[C@@H]3COP(=O)(S)O[C@H]2[C@H]1F (single isomer, unassigned) [Example 12-4]",0.005 µM,0.002 µM,–,–,–,0.06 µM,1.09 µM,–,–,–
"Nc1ncnc2c1ncn2[C@@H]1O[C@@H]2COP(=O)(O)O[C@H]3[C@@H](O)[C@H](n4cnc5c(=O)n6ccnc6[nH]c54)O[C@@H]3COP(=O)(O)O[C@H]2[C@H]1F [Example 2, (1S,6R,8R,9R,10R,15R,17R,18R)-8-(6-amino-9H-purin-9-yl)-9-fluoro-3,12,18-trihydroxy-17-{9-oxo-3H,4H,9H-imidazo[1,2-a]purin-3-yl}-2,4,7,11,13,16-hexaoxa-3λ^5,12λ^5-diphosphatricyclo[13.3.0.0^6,10]octadecane-3,12-dione]",0.01 µM,0.04 µM,–,4.38 µM,–,–,–,2.36 µM,–,–
"Nc1ncnc2c1ncn2[C@@H]1O[C@@H]2COP(=O)(S)O[C@H]3[C@@H](O)[C@H](n4nnc5c([N+](=O)[O-])cccc54)O[C@@H]3COP(=O)(O)O[C@H]2[C@H]1F (single isomer, unassigned) [Example 13-1]",1.44 µM,8.45 µM,–,> 100 µM,–,–,–,> 100 µM,–,–
"Nc1ncnc2c1ncn2[C@@H]1O[C@@H]2COP(=O)(S)O[C@H]3[C@@H](O)[C@H](n4cnc5c4ncn4ncnc54)O[C@@H]3COP(=O)(O)O[C@H]2[C@H]1F (single isomer, unassigned) [Example 10-2]",–,0.05 µM,–,–,–,3.69 µM,–,–,–,8.99 µM

# Reference: patent US11660311B2, “Cyclic dinucleotides as anticancer agents” (priority 2017, dated 2023)
